This is an account of results in BindingDB's records for doi:10.7270/Q28051GP (Universiti Teknologi Mara, 2017).

Broadly, the IC50 is the concentration that gives 50% inhibition. A low value points to greater potency in that assay.

The target of this assay is T1, Beta-glucuronidase (Homo sapiens, UniProt P08236).
T1 sequence (P08236 whole entry): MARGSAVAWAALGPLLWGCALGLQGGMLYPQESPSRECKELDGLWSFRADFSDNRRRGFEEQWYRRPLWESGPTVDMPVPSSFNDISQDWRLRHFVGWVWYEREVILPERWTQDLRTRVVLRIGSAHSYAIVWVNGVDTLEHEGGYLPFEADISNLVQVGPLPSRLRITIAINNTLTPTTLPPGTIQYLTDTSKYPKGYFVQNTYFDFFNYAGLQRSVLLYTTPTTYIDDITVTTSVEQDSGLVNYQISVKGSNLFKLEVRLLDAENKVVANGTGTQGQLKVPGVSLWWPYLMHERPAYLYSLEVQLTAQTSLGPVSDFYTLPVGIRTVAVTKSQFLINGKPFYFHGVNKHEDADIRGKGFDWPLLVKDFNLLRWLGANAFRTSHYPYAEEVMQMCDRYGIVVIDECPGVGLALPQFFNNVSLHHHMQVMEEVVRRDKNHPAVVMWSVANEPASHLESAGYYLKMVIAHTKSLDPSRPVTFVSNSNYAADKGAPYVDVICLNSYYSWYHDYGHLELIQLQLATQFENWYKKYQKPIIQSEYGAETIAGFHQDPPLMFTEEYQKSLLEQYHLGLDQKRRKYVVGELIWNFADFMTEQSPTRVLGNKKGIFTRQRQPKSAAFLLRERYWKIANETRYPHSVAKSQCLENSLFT
In words: β-Glucuronidase Assay.
Procedure: β-glucuronidase activity was determined in accordance to method used by Taha et al. [Taha et al., Bioorg. […] 250 μL was the volume of total reaction. Reaction mixture containing 5 μL of test compound solution, 185 μL of 0.1 M acetate buffer and 10 μL of enzyme solution were incubated for 30 min at 37 °C. […] To avoid precipitation, compound concentration was decreased and the volume of reaction was increased (200 μL). Precipitation probability was less thus addition of detergents was not needed.
Regarding `O=C(N/N=C/c1cccc(O)c1O)c1cc2cc(Cl)ccc2[nH]1` [(E)-5-chloro-N'-(2,3-dihydroxybenzylidene)-1H-indole-2-carbohydrazide (19)], the IC50 is 13.4 µM.

The compound `O=C(N/N=C/c1cc(O)ccc1O)c1cc2cc(Cl)ccc2[nH]1` [(E)-5-chloro-N'-(2,5-dihydroxybenzylidene)-1H-indole-2-carbohydrazide (23)] had an IC50 of 7.5 µM.

As to `COc1ccc(/C=N/NC(=O)c2cc3cc(Cl)ccc3[nH]2)c(O)c1` [(E)-5-chloro-N'-(2-hydroxy-4-methoxybenzylidene)-1H-indole-2-carbohydrazide (16)], the IC50 was found to be 21.5 µM.

The compound `COc1ccc(O)c(/C=N/NC(=O)c2cc3cc(Cl)ccc3[nH]2)c1` [(E)-5-chloro-N'-(2-hydroxy-5-methoxybenzylidene)-1H-indole-2-carbohydrazide (6)] returned an IC50 of 24.3 µM.

As for `O=C(N/N=C/c1ccccc1O)c1cc2cc(Cl)ccc2[nH]1` [(E)-5-chloro-N'-(2-hydroxybenzylidene)-1H-indole-2-carbohydrazide (26)], the midpoint of inhibition, the IC50, lay at 25.2 µM.

Regarding `O=C(N/N=C/c1ccc(O)c(O)c1)c1cc2cc(Cl)ccc2[nH]1` [(E)-5-chloro-N'-(3,4-dihydroxybenzylidene)-1H-indole-2-carbohydrazide (24)], the IC50 came to 14.6 µM.

In the case of `COc1ccc(/C=N/NC(=O)c2cc3cc(Cl)ccc3[nH]2)cc1O` [(E)-5-chloro-N'-(3-hydroxy-4-methoxybenzylidene)-1H-indole-2-carbohydrazide (5)], the IC50 is 22.5 µM.

`COc1ccc(/C=N/NC(=O)c2cc3cc(Cl)ccc3[nH]2)cc1` [(E)-5-chloro-N'-(4-methoxybenzylidene)-1H-indole-2-carbohydrazide (13)] registered an IC50 of 53.6 µM.

With `Cc1ccc(/C=N/NC(=O)c2cc3cc(Cl)ccc3[nH]2)cc1` [(E)-5-chloro-N'-(4-methylbenzylidene)-1H-indole-2-carbohydrazide (1)], half-maximal inhibition (IC50) was put at 43.5 µM. This IC50 and that of the compound before are within 1.5-fold of each other.

As for `O=C(N/N=C/c1ccccn1)c1cc2cc(Cl)ccc2[nH]1` [(E)-5-chloro-N'-(pyridin-2-ylmethylene)-1H-indole-2-carbohydrazide (17)], it took 22.8 µM to reach half-maximal inhibition (IC50). This IC50 lies about 1.9-fold lower than the previous one.

`O=C(N/N=C/c1cccnc1)c1cc2cc(Cl)ccc2[nH]1` [(E)-5-chloro-N'-(pyridin-3-ylmethylene)-1H-indole-2-carbohydrazide (18)] displayed an IC50 of 44.5 µM.

For the compound `O=C(N/N=C/c1ccncc1)c1cc2cc(Cl)ccc2[nH]1` [(E)-5-chloro-N'-(pyridin-4-ylmethylene)-1H-indole-2-carbohydrazide (27)], the midpoint of inhibition, the IC50, lay at 42.4 µM.

Regarding `O=C(N/N=C/c1ccc(F)c(Br)c1)c1cc2cc(Cl)ccc2[nH]1` [(E)-N'-(3-bromo-4-fluorobenzylidene)-5-chloro-1H-indole-2-carbohydrazide (33)], inhibition was half-maximal at 14.4 µM (IC50). Compared with the last compound, the IC50 is about 2.9-fold lower.

For the compound `O=C(N/N=C/c1ccc(Cl)cc1)c1cc2cc(Cl)ccc2[nH]1` [(E)-N'-(4-chlorobenzylidene)-5-chloro-1H-indole-2-carbohydrazide (34)], the IC50 came to 37.2 µM.

In turn, `COC(=O)c1ccc(/C=N/NC(=O)c2cc3cc(Cl)ccc3[nH]2)cc1` [Methyl (E)-4-((2-(5-chloro-1H-indole-2-carbonyl)hydrazono)methyl)benzoate (15)] displayed an IC50 of 22.6 µM.
